# Source: US9464064B2, “HCV helicase inhibitors and methods of use thereof” (University of Kansas, priority 2011, dated 2016)
# Where two headings read alike, the source gives them in different places.
# Experiments:
# [1] = biological target: T1, HCV helicase (Hepatitis C virus genotype 1b, UniProt Q9WMX2); assay: MBHA with RNA substrate (HCV helicase-catalyzed RNA unwinding); assay type: biochemical; details: in words
# T1 construct: truncated C-terminally His-tagged NS3 proteins lacking the N-terminal protease, called NS3h; His-tag (C); made in house
# T1 sequence (Q9WMX2 1192-1657): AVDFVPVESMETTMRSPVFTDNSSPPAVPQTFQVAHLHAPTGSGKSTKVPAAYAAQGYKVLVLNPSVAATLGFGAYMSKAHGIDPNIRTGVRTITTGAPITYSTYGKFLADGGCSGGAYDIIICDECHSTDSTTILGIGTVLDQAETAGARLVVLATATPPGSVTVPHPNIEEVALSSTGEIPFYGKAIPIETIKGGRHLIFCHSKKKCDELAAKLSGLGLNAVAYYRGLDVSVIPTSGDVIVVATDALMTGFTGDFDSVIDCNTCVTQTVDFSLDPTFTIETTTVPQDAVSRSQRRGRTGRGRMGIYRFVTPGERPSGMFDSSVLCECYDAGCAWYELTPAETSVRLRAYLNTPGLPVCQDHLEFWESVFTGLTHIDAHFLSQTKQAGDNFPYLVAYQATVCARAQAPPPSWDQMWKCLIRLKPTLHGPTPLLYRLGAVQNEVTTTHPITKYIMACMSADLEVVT
# Source text: (§1) All oligonucleotides were purchased from Integrated DNA Technologies (IDT, Coralville, Iowa). The partially duplex DNA substrates used in MBHAs consisted of a helicase substrate forming 25 base pairs and consists of a 45-mer bottom strand 5′-GCTCCCCGTTCATCGATTGGGGAGC(T)20-3′ (SEQ ID NO:1) and the 25-mer HCV top strand 5′-Cy5-GCTCCCCAATCGATGAACGGGGAGC-IBRQ-3′ (SEQ ID NO:2). The 19 base pair RNA substrate used in MBHAs was composed of a 39 nucleotide long bottom strand 5′-AGU GCC UUG ACG AUA CAG C(U)20-3′ (SEQ ID NO:3) and the 24 nucleotide long top strand 5′-Tye^665-AGUGCGCUGUAUCGUCAAGGCACU-IBRQSp-3′ (SEQ ID NO:4). Underlined areas denote hairpin-forming regions. DNA and RNA substrates were annealed and purified as described previously (Belon & Frick (2008) BioTechniques 45:433-40, 442).
# (§2) All molecular beacon-based helicase assays (MBHAs) were performed according to known methods (Belon & Frick (2008) supra; Belon & Frick (2009) supra). […] In each flat, black 384-well plate, 56 compounds were tested, in triplicate, along with three negative controls (DMSO only), three positive controls (500 nM dT20), and two wells with no enzyme. Fluorescence was read before ATP (F0) addition and 30 minutes after ATP was added to 1 mM (F30) using a Tecan Infinite M200 fluorescence microplate reader with excitation and emission wavelengths set to 643 and 670 nm, respectively. Percent inhibition was calculated with equation 1, and compound interference in the MBHA was calculated with equation 2.
# To monitor helicase reaction kinetics and to calculate IC50 values, MBHAs were performed in 60 μL in white ½ area 96-well plates and measured in a Thermo Varioscan Multimode reader (Thermo Scientific) using the 643 nm excitation wavelength and 667 emission wavelengths. […] Initial reaction velocities were calculated by fitting first-order decay equation to data obtained after ATP addition and calculating an initial velocity form the resulting amplitude and rate constant.
# [2] = biological target: T2, HCV NS3 helicase NS3h_1b(con1) (Hepatitis C virus genotype 1b, UniProt Q9WMX2); assay: biochemical; assay type: biochemical, hepatitis C virus genotype 1b(con1)
# T2 construct: truncated C-terminally His-tagged NS3 proteins lacking the N-terminal protease, called NS3h; His-tag (C); made in house
# T2 sequence (Q9WMX2 1192-1657): as the sequence (Q9WMX2 1192-1657) above
# Source text: as §1
# The cloning, expression, and purification of His-tagged recombinant HCV NS3 protein have been described previously (Lam, et al. (20030 J. Virol. 77:3950-61; Heck, et al. (2008) Antimicrob. Agents Chemother. 52:1901-11; Frick et al. (2010) Methods Mol. Biol. 587:223-233; Belon, et al. & Frick (2009) J. Mol. Biol. 388:851-864).
# as §2
# To monitor helicase reaction kinetics and to calculate IC50 values, MBHAs were performed in 60 μL in white ½ area 96-well plates and measured in a Thermo Varioscan Multimode reader (Thermo Scientific) using the 643 nm excitation wavelength and 667 emission wavelengths. Reactions were again performed by first incubating all components except for ATP for two minutes, then initiated by injecting in 1/10 volume of ATP such that the final concentration of all components was as noted above. Conditions were as described above except that 5% v/v DMSO was present in each assay. Initial reaction velocities were calculated by fitting first-order decay equation to data obtained after ATP addition and calculating an initial velocity form the resulting amplitude and rate constant.
# [formula] where, v0 is the velocity observed in DMSO-only controls inhibition, h is the Hillslope coefficient, [I] is the concentration of test compound.
# [3] = biological target: MBHA DNA substrate; assay: Fluorescent intercalation displacement (FID) assay, ethidium bromide; assay type: binding; details: FID; mean ± SD; read-out: DNA Binding (Ethidium Bromide) EC50
# Procedure: Fluorescent intercalation displacement (FID) assays (Boger, et al. (2001) J. Am. Chem. Soc. 123:5878-5891) were used to measure the ability of a compound to bind the MBHA substrate. The concentration at which half the ethidium bromide is displaced (EC50) was determined using the different conditions as above to more closely mimic the conditions of a standard helicase assay. Each 100 μL reaction contained 25 mM MOPS pH 6.5, 0.16 μM MBHA DNA substrate (lacking Cy5 and IBQ-RQ modifications), 2 μM ethidium bromide, and various concentrations of test compound. Fluorescence of ethidium bromide was monitored using excitation and emission wavelengths of 545 and 595 nm, respectively, on a Cary Eclipse fluorescence spectrophotometer in white 96-well plates. The amount of ethidium bromide-DNA complex fluorescence was used to estimate the ability of compounds to bind DNA, and therefore displace the fluorescent intercalator (ethidium bromide).
# In Equation 4, Fc is the fluorescence in the presence of the compound, F(−) is the average DMSO-only negative controls, and F(+) is the average positive controls (100 μM berenil). EC50 values were from a normalized dose-response curve.
# These twelve hits were then subjected to a counterscreen designed to independently identify DNA binding compounds using a modified fluorescent intercalator displacement (FID) assay (Boger, et al. (2001) supra). The FID assay used ethidium bromide to judge a compound's ability to bind DNA and was based on the assumption that a DNA binding compound would displace a fluorescent DNA intercalating agent, leading to an observable decrease in observed fluorescence. Compounds were tested at 1.5 μM in the presence of the 25 base pair substrate used in the helicase assays.
# [4] = biological target: T3, E. coli SSB-Cy5-dT15 complex (Escherichia coli, UniProt P0AGE0); assay: Escherichia coli SSB Cy5-dT15 binding assay (fluorescence polarization); details: disruption of Cy5-dT15-SSB complex; read-out: Cy5-dT15-SSB Binding IC50
# T3 construct: purchased Promega
# T3 sequence (P0AGE0 2-178, one chain of several): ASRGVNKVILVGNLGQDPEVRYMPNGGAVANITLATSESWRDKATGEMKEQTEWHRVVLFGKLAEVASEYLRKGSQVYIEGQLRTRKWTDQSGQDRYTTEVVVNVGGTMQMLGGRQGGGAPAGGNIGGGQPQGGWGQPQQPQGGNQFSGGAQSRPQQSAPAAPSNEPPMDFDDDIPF
# Procedure: The Escherichia coli SSB assay was performed in a total volume of 20.2 μl in 384-well, flat-bottom, low volume, black microplates (Greiner Bio-One). First, 20 μl of a assay solution (5 nM Cy5-[…]-3′ (Cy5-dT15, SEQ ID NO:5), 20 nM E. coli SSB (Promega), 25 mM MOPS, pH 7.5, 1.25 mM MgCl2, 0.0025 mg/ml BSA, 0.005% (v/v) TWEEN 20 and 0.025 mM DTT) was dispensed in each well, then 0.2 μl of dimethylsulfoxide (DMSO) or compound dissolved in DMSO was added by pin transfer, such that the final concentration of DMSO was 1% (v/v) in each assay.
# For IC50 determination, assays were performed with 60 μl total volume in black flat bottomed 384-well microplates (Corning). First, 3.0 μl of DMSO or compound dissolved in DMSO was added, such that the final concentration of DMSO was 5% (v/v) in each assay. Then 57 μl of a assay solution (5 nM Cy5-dT15, 20 nM SSB, 25 mM MOPS, pH 7.5, 1.25 mM MgCl2, 0.0025 mg/ml BSA, 0.005% (v/v) TWEEN 20 and 0.025 mM DTT) was dispensed in each well. Polarization was monitored with a TECAN Infinite M1000 PRO multi-mode microplate reader by exciting at 635 nm (5 nm bandwidth) and measuring total fluorescence intensity, parallel and perpendicular polarized light at 667 nm (20 nm bandwidth).
# [5] = biological target: T4, NS3h_1b(con1) (Hepatitis C virus genotype 1b, UniProt Q9WMX2); assay: ATP hydrolysis assay (malachite green); assay type: biochemical
# T4 construct: truncated C-terminally His-tagged NS3 proteins lacking the N-terminal protease, called NS3h; His-tag (C); made in house
# T4 sequence (Q9WMX2 1192-1657): as the sequence (Q9WMX2 1192-1657) above
# Procedure: A modified “malachite green” assay (Lanzetta, et al. (1979) Anal. Biochem. 100:95-97) was used to measure ATP hydrolysis. Fifty μL reactions contained 25 mM MOPS pH 6.5, 5 mM MgCl2, 2 mM ATP, 5 μg/mL BSA, 0.01% (v/v) TWEEN 20, 0.05 mM DTT, and poly(U) RNA (Saint Louis, Mo.) as indicated. Reactions were initiated by adding NS3h_1b(con1). Reactions were incubated for 15 minutes at 37° C. then stopped by mixing 40 μL of the reaction into 200 μL of the malachite green reagent (3 volumes 0.045% (w/v) malachite green, 1 volume 4.2% ammonium molybdate in 4N HCl, 0.05 volume of 20% TWEEN 20). […] Absorbance at 630 nm was proportional to the concentration of phosphate produced; free phosphate produced was measured against a standard curve.
# [6] = system: MBHA DNA substrate; assay: Modified FID assay, SYBR Green I; assay type: binding; details: FID; mean ± SD; read-out: DNA Binding (SYBR Green I) EC50
# Procedure: A modified FID assay, in which ethidium bromide was replaced with SYBR Green I (Invitrogen), was used to estimate a compounds affinity for the MBHA substrate. Reactions were performed as described above except that the DNA substrate was present at 0.32 μM, ethidium bromide was absent, and SYBER Green was present at (0.68 μM). Data were normalized as described above and fit to concentration-response equation using GraphPad Prism software. Titrations with each compound were performed in triplicate, and EC50 values from three independent titrations are reported ±standard deviations.
# [7] = system: Huh-7.5 cells; assay: Cell viability assay ([…]-GLO); assay type: cell-based, human; details: 10 μM
# Procedure: To assess compound toxicity toward Huh-7.5 cells, cells were plated and treated as above and cell viability was assessed using the […]-GLO luminescent cell viability kit (PROMEGA) following the manufacturer's instructions. Briefly, at the end of a 72 hour incubation period, the medium was aspirated and the cells were washed with 1×PBS, then an equal volume of growth medium and […]-GLO reagent was added and the lysis was initiated by mixing on an orbital shaker. The plate was incubated at 23° C. for 30 minutes and the luciferase activity was measured for 1 second using the FLUOSTAR Omega microplate reader (BMG Labtech).
# [8] = MBHA, DNA unwinding, mean ± SD of three titrations, read-out: Helicase IC50
# [9] = standard HCV helicase MBHA (Table 9), read-out: DNA Unwinding IC50
compound,measurement,setting,value
"CO[C@@H]1[C@H](O)C[C@@H](O[C@@H]2C[C@H](Oc3cc4cc5c(c(O)c4c(O)c3C)C(=O)[C@@H](O[C@H]3C[C@@H](O[C@H]4C[C@@H](O[C@H]6C[C@](C)(O)[C@@H](OC(C)=O)[C@H](C)O6)[C@H](O)[C@@H](C)O4)[C@H](O)[C@@H](C)O3)[C@H]([C@H](OC)C(=O)[C@@H](O)[C@@H](C)O)C5)O[C@H](C)[C@@H]2OC(C)=O)O[C@@H]1C [Chromomycin A3, reference compound]",effect on HCV helicase catalyzed RNA unwinding,[1],no effect
same,IC50,[2]; [8],0.15 ± 0.03 µM
"Cc1cc2sc(-c3ccc(N)cc3)nc2cc1S(=O)(=O)O [Compound P1b, 2-(4-aminophenyl)-6-methylbenzo[d]thiazole-5-sulfonic acid]",EC50,[3],> 100 µM
same,IC50,[4],19 ± 8 µM
same,IC50,[5],> 100 µM
same,IC50,[2]; [8],122 ± 5 µM
same,IC50,[2]; [9],122 ± 5 µM
same,EC50,[6],> 100 µM
"CCOc1ccc2c(NNC(=O)c3cnccn3)c3c(nc2c1)CCCC3 [Compound 1, reference compound]",EC50,[3],> 100 µM
same,toxicity to cells,[7],None of the comparison helicase inhibitors were particularly toxic at 10 μM except for 1
same,IC50,[5],> 100 µM
same,IC50,[2]; [8],> 100 µM
same,EC50,[6],> 100 µM
"CN1CCN(Cc2cc(CN3CCN(C)CC3)c(O)c(=O)c(CN3CCN(C)CC3)c2)CC1 [Compound 4, reference compound]",EC50,[3],> 100 µM
same,IC50,[5],> 100 µM
same,IC50,[2]; [8],19 ± 8 µM
same,EC50,[6],74 ± 21 µM
"Cc1ccc2c(c1)sc(-c1ccc(N(C)C)cc1)[n+]2C.[Cl-] [thioflavine T, reference compound]",effect on HCV helicase catalyzed RNA unwinding,[1],no effect
same,effect on HCV helicase catalyzed DNA unwinding,[2]; in words,no effect
"Cc1cc2sc(-c3ccc4nc(-c5ccc(N)cc5)sc4c3)nc2cc1S(=O)(=O)O [Compound P2b, 2′-(4-aminophenyl)-6-methyl-[2,6′-bibenzo[d]thiazole]-5-sulfonic acid]",EC50,[3],73 ± 36 µM
same,IC50,[4],1 µM
same,IC50,[5],> 100 µM
same,IC50,[2]; [8],10 ± 4.6 µM
same,IC50,[2]; [9],7 ± 4 µM
same,EC50,[6],32 ± 3 µM
"Cc1cc(C(O)(c2ccc(Nc3ccccc3)cc2)c2ccc(Nc3ccc(S(=O)(=O)O)cc3)cc2)ccc1N (centres unmarked) [Compound 3, reference compound]",EC50,[3],4 ± 2 µM
same,IC50,[5],> 100 µM
same,IC50,[2]; [8],17 ± 7 µM
same,EC50,[6],20 ± 2 µM
"Cc1ccc2nc(-c3ccc(N)cc3)sc2c1S(=O)(=O)O [Compound P1a, 2-(4-aminophenyl)-6-methylbenzo[d]thiazole-7-sulfonic acid]",EC50,[3],> 100 µM
same,IC50,[4],13 ± 4 µM
same,IC50,[5],> 100 µM
same,IC50,[2]; [8],70 ± 31 µM
same,IC50,[2]; [9],70 ± 31 µM
same,EC50,[6],> 100 µM
